Reference: patent publication US20230406821A1, “STRIGOLACTONE DERIVATIVES” (Plant Response, Inc., priority 2017, published 2023)

Assays:
BRANCHED1 (BRC1) gene = assay: BRC1 gene expression by RT-PCR in sprayed seedlings; assay type: in vivo, Arabidopsis thaliana; details: Col-0 seedlings, foliar spray, 0.4% DMSO, shoots harvested 24 hours later; similarly to GR24 (FIG. 2)
From the text: FIG. 2 is a boxplot representing Ct value distributions of BRC1 relative to constitutive control Ct values plotted as ΔCt. Due to the non-normal distribution of the BRC1 data, non-parametric Mann-Whitney U-tests were used to assess statistical significance. Stars indicate significant differences relative to the DMSO control (**: adjustedp-value <0.001; *: adjusted p-value <0.01; p-values adjusted for multiple-hypothesis testing with the Bonferroni correction). […]
Another experiment was performed to consider an aspect of molecular signal transduction. A number of genes in Arabidopsis thaliana are well known downstream signaling targets of the native strigolactone pathway. […]
In this experiment sterilized and stratified seeds of the A. thaliana Columbia (Col-0) were planted on growth media (Murashige and Skoog (MS) M404 with vitamins (2.2 g/L), 0.5% sucrose, 0.05% IVIES hydrate, 0.6% PhytoBlend™) for eight days in a growth chamber under 16 hours of light per day at 22° C. and 19° C. nights. […] Total RNA was extracted and RT-PCR quantification was performed using kits from Macherey-Nagel and Bioline and an ABI 7900HT instrument. […]

[1] = system: A. thaliana Columbia (Col-0); assay: Root hair elongation on phosphate limiting media; assay type: in vivo, Arabidopsis thaliana; details: in DMSO (0.1%), images after seven days, vs DMSO (FIG. 3)
From the text: FIG. 3 is a boxplot representing the maximum root hair length in the root apical zone of A. thaliana treated with the control solvent DMSO, strigolactone molecule MBS-127 in DMSO, and strigolactone molecule MBS-128 in DMSO. Stars indicate significant differences relative to the DMSO control (*: adjusted p-value <0.01; p-values adjusted for multiple-hypothesis testing); non-parametric Mann-Whitney U-tests were used to assess significance. Representative images show root hairs in the root apical zone of plants treated with the control solvent DMSO, the strigolactone molecule MBS-127 in DMSO, and the strigolactone molecule MBS-128 in DMSO. Scale bars equal 1 mm. […]
In this experiment sterilized seeds of the A. thaliana Columbia (Col-0) ecotype were planted on growth media (Murashige and Skoog (MS) M404 with vitamins (2.2 g/L), 0.5% sucrose, 0.05% IVIES hydrate, 0.6% PhytoBlend™) and grown for nine days. […] The longest root hair, within the root apical zone, was measured from the images using ImageJ. […]

[2] = system: Arabidopsis thaliana homozygous max4 knockout mutant; assay: Complementation of ectopic shoot branching in max4 strigolactone biosynthesis mutant; assay type: in vivo; details: max4 mutant line, 10 μM in 0.5× Hoagland's reservoir solution, 0.1% DMSO, 3 weeks of treatment, vs DMSO control (FIG. 1)
From the text: FIG. 1 is a plot of the number of secondary bolts over 0.5 cm long of strigolactone biosynthesis mutant, homozygous max4 knockout, plants that have a primary bolt over 6 cm long treated with solution containing control solvent DMSO, strigolactone molecule MBS-127 in DMSO, and strigolactone molecule MBS-128 in DMSO. Stars indicate significant differences relative to the DMSO control based on the Welch's t-test (*: adjusted p-value <0.1; p-values adjusted for multiple-hypothesis testing
The ability of a novel compound to act in an equivalent manner to a native strigolactone can be assessed by testing its ability to complement phenotypes caused by mutations that disrupt the natural biosynthesis of strigolactones within the plant.
The metric used to assess branching was the number of secondary bolts over 0.5 cm in length in plants that have a primary bolt over 6 cm long. Assessments were made after treatments with solution containing control solvent DMSO, the strigolactone molecule MBS-127 in DMSO, and the strigolactone molecule MBS-128 in DMSO as detailed below. Stratified A. thaliana homozygous max4 knockout mutant seeds were planted on rockwool plugs suspended above reservoirs of 0.5× Hoagland's solution. The plants were grown under 16 hours of light per day at 22° C. and at 19° C. during the nights throughout the experiment. […]

Row | SMILES | expression of the BRC1 gene (ΔCt) (BRANCHED1 (BRC1) gene) | root hair elongation and proliferation (maximum root hair length in the root apical zone) [1] | ectopic branching phenotype (number of secondary bolts over 0.5 cm on plants with primary bolt over 6 cm) [2]
1 | COC(=O)/C=C/OC1C=C(C)C(=O)O1 (stereo not drawn) [MBS-127, 3-(4-Methyl-5-oxo-2,5-dihydro-furan-2-yloxy)-acrylic acid methyl ester] | induced expression of the BRC1 gene | enhance root hair elongation and proliferation | effective in reducing the ectopic branching phenotype
2 | COC(=O)/C=C/OC1(C)C=C(C)C(=O)O1 (stereo not drawn) [MBS-128, methyl (E)-3-((2,4-dimethyl-5-oxo-2,5-dihydrofuran-2-yl)oxy)acrylate] | induced expression of the BRC1 gene | enhance root hair elongation and proliferation | effective in reducing the ectopic branching phenotype
